# ChEMBL document CHEMBL1201862, “PubChem BioAssay data set” (2004)
# Active and inactive are the calls of the source.
# Key:
# Cysteine protease ATG4B = target: T1, Cysteine protease ATG4B (Homo sapiens, UniProt Q9Y4P1); assay type: functional;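 also: Fluorescence-based dose-response confirmation assay measuring inhibition of ATG4B activity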
# T1 sequence (Q9Y4P1 whole entry): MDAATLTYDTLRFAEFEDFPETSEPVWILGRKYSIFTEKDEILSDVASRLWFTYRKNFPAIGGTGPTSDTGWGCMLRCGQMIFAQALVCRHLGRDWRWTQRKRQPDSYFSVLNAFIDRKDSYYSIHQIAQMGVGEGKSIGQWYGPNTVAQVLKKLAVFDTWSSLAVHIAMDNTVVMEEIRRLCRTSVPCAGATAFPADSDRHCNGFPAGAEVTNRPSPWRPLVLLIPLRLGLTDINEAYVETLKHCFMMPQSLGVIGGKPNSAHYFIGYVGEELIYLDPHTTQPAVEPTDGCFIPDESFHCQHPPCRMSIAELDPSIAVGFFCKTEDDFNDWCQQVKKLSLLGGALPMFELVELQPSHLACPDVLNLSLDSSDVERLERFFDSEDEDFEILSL
# Phospholipase A2 = Phospholipase A2 (Homo sapiens, UniProt P04054); assay type: functional;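 also: confirmatory dose-response counterscreen on phospholipase A2, testing hits that came from an ultra-high-throughput screen for ATG4B inhibitors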
# [1] = target: Voltage-dependent T-type calcium channel subunit alpha-1H (Homo sapiens, UniProt O95180); assay type: functional;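 also: channel activity triggered by adding a high calcium stimulation buffer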
# [2] = Luminescence Cell-Based Dose Retest to Confirm Inhibitors of Cancer Stem Cells. [Related pubchem assays (depositor defined):AID2717, AID2721]; assay type: functional; details: Homo sapiens
# INS1 = test: beta cell apoptosis inhibitors, cytokine rescue, dose response, luminescence, retest (AID 449756); assay type: functional, cell-based; details: Rattus norvegicus;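 also: cell death triggered by IL-1 beta plus TNF-alpha plus IFN-gamma mixture; protective hits raise ATP signal compared with cytokine alone wells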
# HEK293 = test: inhibitors of LMP1-driven NF-kB reporter, dose response, cell-based, HEK293, luciferase, cherry-pick (AID 588343); assay type: functional; details: Homo sapiens
# [3] = NIH-3T3 fibroblast cytotoxicity, dose response, cytotoxicity control, cell-based, fluorescence, Alamar Blue, secondary assay (AID 2327); assay type: functional;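 also: NIH-3T3 mouse fibroblasts cultured with fluconazole at 8 µg/mL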
# [4] = C. albicans growth with fluconazole, confirmation, fluorescence, retest (AID 2467); assay type: functional, cell-based
# [5] = cytotoxicity toward NIH3T3 fibroblasts, dose response, counter-screen, cell-based, ATP luminescence, mouse fibroblasts (AID 2010); assay type: functional;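 also: cells exposed to compound for about 90 hours before reading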
# [6] = target: T2, Rac GTPase-activating protein 1 (Homo sapiens, UniProt Q9H0H5); test: MgcRacGAP GTPase-activating activity inhibitors, confirmation, biochemical, ADP Hunter fluorescence, primary and confirmatory (AID 624330); assay type: functional
# T2 sequence (Q9H0H5 whole entry): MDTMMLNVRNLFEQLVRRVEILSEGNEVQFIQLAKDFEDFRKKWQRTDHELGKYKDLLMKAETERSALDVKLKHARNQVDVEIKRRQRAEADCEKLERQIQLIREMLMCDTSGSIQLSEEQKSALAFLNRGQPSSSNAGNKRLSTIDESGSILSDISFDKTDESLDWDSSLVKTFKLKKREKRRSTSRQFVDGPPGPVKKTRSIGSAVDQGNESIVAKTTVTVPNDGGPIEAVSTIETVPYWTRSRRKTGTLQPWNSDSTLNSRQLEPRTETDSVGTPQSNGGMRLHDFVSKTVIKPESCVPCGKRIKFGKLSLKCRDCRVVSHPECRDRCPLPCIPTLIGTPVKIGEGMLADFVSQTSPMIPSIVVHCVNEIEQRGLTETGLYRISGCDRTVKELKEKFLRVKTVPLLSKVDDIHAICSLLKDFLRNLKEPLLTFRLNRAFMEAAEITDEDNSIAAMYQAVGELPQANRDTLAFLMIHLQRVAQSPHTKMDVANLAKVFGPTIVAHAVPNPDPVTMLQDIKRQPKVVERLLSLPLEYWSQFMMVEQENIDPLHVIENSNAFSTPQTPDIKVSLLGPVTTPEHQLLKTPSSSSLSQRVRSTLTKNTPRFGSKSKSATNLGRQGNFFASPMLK
# [7] = inhibitors of intracellular T. cruzi replication, confirmation, NIH3T3 host cells, beta-gal luminescence (AID 2044); assay type: functional, cell-based;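 also: intracellular parasites grown in NIH/3T3 mouse fibroblasts as host cells; luminescent beta-galactosidase reporter signal from transgenic T. cruzi replicating inside host cells; inhibitors lower the luminescence signal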
# [8] = HeLa cell cytotoxicity, dose response, cytotoxicity control for MgcRacGAP inhibitor project (AID 624300); assay type: functional
# Nonstructural protein 1 = Nonstructural protein 1 (Influenza A virus, UniProt Q194T2); assay type: functional, Influenza A virus (A/California/07/2009(H1N1))
# Prothrombin = Prothrombin (Homo sapiens, UniProt P00734); test: Thrombin 1536 HTS Dose Response Confirmation. [Related pubchem assays: 1046 (Thrombin 1536 HTS; hits were confirmed in this assay)]; assay type: functional
# Protein RecA = target: T3, Protein RecA (Mycobacterium tuberculosis, UniProt P9WHJ3); test: Fluorescence Cell-Free Homogeneous Dose Retest to Identify Inhibitors of RecA-Intein Splicing Activity. [Related pubchem assays (depositor defined):AID2097, AID2223, AID489010, AID492950]; assay type: functional
# T3 sequence (P9WHJ3 whole entry): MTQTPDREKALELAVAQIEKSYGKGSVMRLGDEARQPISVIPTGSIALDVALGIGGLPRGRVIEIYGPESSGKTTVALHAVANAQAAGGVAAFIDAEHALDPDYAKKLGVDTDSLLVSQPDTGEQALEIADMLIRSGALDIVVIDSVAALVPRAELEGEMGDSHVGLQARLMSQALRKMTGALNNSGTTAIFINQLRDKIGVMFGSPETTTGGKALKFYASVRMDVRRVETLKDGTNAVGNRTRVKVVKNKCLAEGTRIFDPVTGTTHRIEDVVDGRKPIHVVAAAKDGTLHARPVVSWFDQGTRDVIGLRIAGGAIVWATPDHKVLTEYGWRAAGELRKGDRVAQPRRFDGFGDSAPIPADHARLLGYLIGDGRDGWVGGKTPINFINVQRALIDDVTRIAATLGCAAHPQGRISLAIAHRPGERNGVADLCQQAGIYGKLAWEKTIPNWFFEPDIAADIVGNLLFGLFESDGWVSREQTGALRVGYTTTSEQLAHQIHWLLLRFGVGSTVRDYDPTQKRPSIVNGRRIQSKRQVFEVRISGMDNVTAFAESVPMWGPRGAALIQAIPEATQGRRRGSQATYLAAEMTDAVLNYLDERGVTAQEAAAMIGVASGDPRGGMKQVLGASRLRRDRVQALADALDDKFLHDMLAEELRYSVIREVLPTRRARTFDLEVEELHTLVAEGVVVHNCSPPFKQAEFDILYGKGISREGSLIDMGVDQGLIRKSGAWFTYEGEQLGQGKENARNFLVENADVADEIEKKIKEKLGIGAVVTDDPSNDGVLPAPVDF
# [9] = target: T4, Replicative DNA helicase DnaB (Mycobacterium tuberculosis, UniProt P9WMR3); test: DnaB intein splicing inhibitors, dose response, biochemical, cell-free fluorescence (AID 449749); assay type: functional
# T4 sequence (P9WMR3 whole entry): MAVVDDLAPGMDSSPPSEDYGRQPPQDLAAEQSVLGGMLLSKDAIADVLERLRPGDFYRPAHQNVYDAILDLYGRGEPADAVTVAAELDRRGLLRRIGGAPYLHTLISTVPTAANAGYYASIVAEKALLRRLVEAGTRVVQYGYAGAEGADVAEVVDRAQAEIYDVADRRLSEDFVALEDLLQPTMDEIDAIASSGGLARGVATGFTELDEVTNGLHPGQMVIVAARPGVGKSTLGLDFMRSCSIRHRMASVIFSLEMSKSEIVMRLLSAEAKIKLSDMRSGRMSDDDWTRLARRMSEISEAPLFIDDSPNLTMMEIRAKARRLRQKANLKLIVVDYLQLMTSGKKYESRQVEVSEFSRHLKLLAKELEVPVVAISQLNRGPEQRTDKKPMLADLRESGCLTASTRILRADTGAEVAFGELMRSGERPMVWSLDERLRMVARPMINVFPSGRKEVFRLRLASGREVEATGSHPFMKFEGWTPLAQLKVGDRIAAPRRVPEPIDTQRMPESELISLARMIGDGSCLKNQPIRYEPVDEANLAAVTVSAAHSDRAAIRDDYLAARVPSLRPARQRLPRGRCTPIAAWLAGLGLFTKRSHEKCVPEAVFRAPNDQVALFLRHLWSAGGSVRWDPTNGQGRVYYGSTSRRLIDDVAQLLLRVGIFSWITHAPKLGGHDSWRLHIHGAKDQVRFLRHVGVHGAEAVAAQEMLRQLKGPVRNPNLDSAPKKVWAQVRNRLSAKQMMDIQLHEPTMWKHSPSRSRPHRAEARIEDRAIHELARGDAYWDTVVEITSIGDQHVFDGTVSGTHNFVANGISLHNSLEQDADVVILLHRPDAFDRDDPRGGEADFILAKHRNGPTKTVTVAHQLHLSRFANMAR
# Streptokinase A = target: T5, Streptokinase A (Streptococcus pyogenes serotype M1, UniProt P10520); test: S. pyogenes streptokinase expression inhibitors, potency, dose response, plasminogen activation absorbance, OD405 (AID 1914); assay type: functional, Streptococcus pyogenes M1 GAS;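 also: secreted streptokinase activity via plasminogen activation per viability signal from cell pellet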
# T5 sequence (P10520 whole entry): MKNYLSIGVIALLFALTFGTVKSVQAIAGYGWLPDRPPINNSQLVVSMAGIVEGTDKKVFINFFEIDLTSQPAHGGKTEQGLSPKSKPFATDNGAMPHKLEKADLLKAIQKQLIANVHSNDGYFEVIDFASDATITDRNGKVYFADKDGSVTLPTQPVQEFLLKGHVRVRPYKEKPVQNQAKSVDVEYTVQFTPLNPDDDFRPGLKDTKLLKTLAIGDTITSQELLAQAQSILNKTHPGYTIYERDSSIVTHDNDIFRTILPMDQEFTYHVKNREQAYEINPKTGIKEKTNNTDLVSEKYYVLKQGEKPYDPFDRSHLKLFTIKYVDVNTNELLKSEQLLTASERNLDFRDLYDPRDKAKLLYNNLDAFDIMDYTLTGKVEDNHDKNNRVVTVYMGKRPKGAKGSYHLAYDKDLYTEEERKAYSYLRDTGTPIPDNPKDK
# [10] = system: Streptococcus sp. 'group A'; test: growth inhibition of control SK(-) GAS strain, dose response, counter-screen for streptokinase expression inhibitor project, luminescence, kanamycin, BacTiterGlo, confirmation (AID 1900); assay type: functional, organism-based
# Streptococcus = test: Group A Streptococcus viability loss, dose response, counter-screen for streptokinase expression inhibitor project, luminescence, BacTiterGlo (AID 1915); assay type: functional, organism-based;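 also: potency for reduction of bacterial viability or growth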
# [11] = growth suppression of beta-catenin-knockout colon cells, dose response, cell-based, HCT116, human colon tumor (AID 1045); assay type: functional;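 also: HCT116 colon tumor cells with beta catenin knocked out; cells exposed to compound for 60 hours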
# [12] = growth suppression of PTEN-null colon cells, dose response, cell-based, HCT116 PTEN knockout (AID 1047); assay type: functional;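 also: HCT116 colon tumor cells with PTEN knocked out; cells exposed to compound for 60 hours before readout; potency for loss of cell viability measured by luminescence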
# Phospholipase A2, sequence (P04054 whole entry): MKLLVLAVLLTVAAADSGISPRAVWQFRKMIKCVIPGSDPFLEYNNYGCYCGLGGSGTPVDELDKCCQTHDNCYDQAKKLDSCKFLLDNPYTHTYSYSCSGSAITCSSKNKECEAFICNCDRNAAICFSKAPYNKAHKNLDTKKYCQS
# Voltage-dependent T-type calcium channel subunit alpha-1H, sequence (O95180 whole entry): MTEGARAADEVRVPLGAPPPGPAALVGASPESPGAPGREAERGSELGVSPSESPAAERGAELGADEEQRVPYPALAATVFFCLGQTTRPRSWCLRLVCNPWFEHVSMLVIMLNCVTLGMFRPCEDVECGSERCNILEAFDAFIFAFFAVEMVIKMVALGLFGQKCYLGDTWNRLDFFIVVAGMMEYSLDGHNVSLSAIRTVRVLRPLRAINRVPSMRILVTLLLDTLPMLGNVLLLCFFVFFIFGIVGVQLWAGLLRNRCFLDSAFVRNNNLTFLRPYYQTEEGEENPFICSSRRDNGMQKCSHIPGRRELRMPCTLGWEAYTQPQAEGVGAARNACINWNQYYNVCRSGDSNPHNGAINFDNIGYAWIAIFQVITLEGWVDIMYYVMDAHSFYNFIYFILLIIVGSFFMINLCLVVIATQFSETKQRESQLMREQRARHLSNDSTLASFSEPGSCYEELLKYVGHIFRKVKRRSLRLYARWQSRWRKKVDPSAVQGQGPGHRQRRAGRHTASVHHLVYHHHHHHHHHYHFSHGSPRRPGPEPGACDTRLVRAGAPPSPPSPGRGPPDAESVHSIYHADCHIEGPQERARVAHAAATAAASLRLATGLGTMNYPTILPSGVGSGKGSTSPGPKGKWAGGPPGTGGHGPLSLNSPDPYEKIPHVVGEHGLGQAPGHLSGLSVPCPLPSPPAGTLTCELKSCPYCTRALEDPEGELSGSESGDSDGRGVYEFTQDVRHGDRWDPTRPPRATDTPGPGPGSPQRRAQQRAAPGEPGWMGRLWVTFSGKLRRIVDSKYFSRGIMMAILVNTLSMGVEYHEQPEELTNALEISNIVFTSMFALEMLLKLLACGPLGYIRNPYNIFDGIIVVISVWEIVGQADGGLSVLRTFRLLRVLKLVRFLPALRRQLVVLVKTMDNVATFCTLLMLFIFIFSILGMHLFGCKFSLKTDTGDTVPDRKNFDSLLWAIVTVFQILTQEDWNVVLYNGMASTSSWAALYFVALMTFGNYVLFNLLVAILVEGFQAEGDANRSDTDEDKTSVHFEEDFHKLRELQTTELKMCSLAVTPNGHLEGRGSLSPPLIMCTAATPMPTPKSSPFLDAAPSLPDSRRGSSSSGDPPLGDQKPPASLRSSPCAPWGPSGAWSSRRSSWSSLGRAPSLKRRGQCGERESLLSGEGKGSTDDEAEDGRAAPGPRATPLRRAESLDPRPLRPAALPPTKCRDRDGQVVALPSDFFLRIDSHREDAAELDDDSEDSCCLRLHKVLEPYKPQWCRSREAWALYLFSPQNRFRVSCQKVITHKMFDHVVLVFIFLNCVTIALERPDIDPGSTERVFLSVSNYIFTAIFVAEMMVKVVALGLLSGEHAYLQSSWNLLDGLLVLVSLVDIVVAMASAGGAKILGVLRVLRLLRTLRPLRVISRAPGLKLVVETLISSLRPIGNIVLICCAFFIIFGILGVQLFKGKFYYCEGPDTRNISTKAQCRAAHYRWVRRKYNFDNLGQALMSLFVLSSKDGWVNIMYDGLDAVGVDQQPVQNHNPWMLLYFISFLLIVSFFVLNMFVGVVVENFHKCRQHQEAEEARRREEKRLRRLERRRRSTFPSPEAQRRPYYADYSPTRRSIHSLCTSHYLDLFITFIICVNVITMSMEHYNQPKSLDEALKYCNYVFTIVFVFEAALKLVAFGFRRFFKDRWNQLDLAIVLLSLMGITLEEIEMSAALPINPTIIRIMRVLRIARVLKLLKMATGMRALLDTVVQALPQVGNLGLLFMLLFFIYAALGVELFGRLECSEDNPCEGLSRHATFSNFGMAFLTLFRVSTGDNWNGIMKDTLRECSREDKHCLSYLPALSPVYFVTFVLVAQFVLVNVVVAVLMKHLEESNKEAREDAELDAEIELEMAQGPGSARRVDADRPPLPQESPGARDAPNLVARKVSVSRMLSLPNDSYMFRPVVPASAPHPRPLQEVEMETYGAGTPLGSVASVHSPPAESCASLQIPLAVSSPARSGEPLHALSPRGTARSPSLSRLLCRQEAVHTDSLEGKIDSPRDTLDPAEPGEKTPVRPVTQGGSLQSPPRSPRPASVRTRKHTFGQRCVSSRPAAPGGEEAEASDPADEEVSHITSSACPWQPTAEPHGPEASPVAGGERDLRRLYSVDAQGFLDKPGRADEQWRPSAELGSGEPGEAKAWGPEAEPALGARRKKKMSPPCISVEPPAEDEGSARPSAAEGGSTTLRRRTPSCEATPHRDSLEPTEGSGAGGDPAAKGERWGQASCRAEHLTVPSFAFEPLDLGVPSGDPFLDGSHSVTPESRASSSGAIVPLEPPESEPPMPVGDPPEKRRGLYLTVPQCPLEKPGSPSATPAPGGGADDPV
# Nonstructural protein 1, sequence (Q194T2 whole entry): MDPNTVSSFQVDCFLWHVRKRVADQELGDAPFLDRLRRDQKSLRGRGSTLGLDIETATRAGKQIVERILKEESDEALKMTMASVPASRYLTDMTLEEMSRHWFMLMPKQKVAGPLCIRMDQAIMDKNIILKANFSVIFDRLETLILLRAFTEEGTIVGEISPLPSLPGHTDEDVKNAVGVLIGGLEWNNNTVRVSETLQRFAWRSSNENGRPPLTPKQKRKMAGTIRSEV
smiles,measurement,setting,value
CN(C)Cc1ccc(F)cc1Sc1cc(Cl)ccc1Cl,IC50,Cysteine protease ATG4B,16.9 µM (active)
same,IC50,Phospholipase A2,16.4 µM (active)
O=C(Nc1cc(C(F)(F)F)cc(C(F)(F)F)c1)c1ccc(Cn2cc(C(F)(F)F)ccc2=O)cc1,EC50,[1],5.74 µM (active)
CCC1=NN(C(=O)c2cccc(Br)c2)C(O)(c2ccc(Br)cc2)C1 (stereo not given),IC50,Cysteine protease ATG4B,12.1 µM (active)
same,IC50,Phospholipase A2,8.71 µM (active)
same,AC50,[2],0.634 µM (active)
same,AC50,INS1,4.84 µM (active)
C=CCn1c(O)c(N=NC(S)=Nc2ccccc2C)c2cc(S(=O)(=O)N3CCOCC3)ccc21,AC50,HEK293,2.93 µM (active)
same,EC50,[3],20.4 µM (inconclusive)
same,EC50,[4],2.06 µM (active)
Cc1ccc(C(=O)O)cc1/N=C/c1cc(Br)cc(Br)c1O,IC50,Cysteine protease ATG4B,9.89 µM (active)
same,IC50,Phospholipase A2,18 µM (active)
CCOc1cc(CNc2ccc(N3CCCCC3)cc2)cc(Br)c1OCC(=O)NC(C)(C)C,EC50,[5],> 60 µM (inconclusive)
same,IC50,[6],20.8 µM (active)
same,EC50,[7],1.46 µM (active)
same,CC50,[8],100 µM (active)
O=[N+]([O-])c1nn(-c2ccc3c(c2)OCCO3)[n+]([O-])c1NC1CCCCCC1,EC50,[5],> 30 µM (not active)
same,IC50,Nonstructural protein 1,44.6 µM (active)
same,EC50,[7],0.681 µM (active)
CCCC(=O)n1nc(-c2ccc(Cl)cc2)nc1SC,IC50,Prothrombin,3.57 µM (active)
Cc1ccc(-c2nnn(CC(=O)N(c3ccccc3F)C(CC(C)C)C(=O)NCC3CCCO3)n2)cc1 (stereo not given),EC50,[1],5.3 µM (active)
COc1ccc(/C=C2\SC(=O)N(CCCC(=O)Nc3ccc(C(=O)O)cc3)C2=O)cc1,AC50,HEK293,2.37 µM (active)
COc1ccc(CNc2nc(-c3cccnc3)nn2C(C)=O)cc1,IC50,Prothrombin,0.0252 µM (active)
O=C(CCC1COc2ccccc2O1)Nc1ccc(Cl)cn1 (stereo not given),EC50,[1],2.94 µM (active)
COc1ccc(C(C(O)C(=O)c2c[nH]c3ccccc23)N2CCN(c3ccccc3)CC2)cc1 (stereo not given),EC50,[1],8.16 µM (active)
O=C(Nc1nc2ccccc2s1)C1CCCN1S(=O)(=O)c1ccc(Cl)cc1 (stereo not given),EC50,[1],5.86 µM (active)
O=C(Nc1nc(-c2cccs2)cs1)c1ccco1,IC50,Prothrombin,> 50 µM (not active)
Clc1ccc(-c2cnnc(-c3ccccn3)n2)cc1,IC50,Nonstructural protein 1,14.2 µM (active)
COc1cccc(C(=O)Nc2n[nH]c(SCc3ccc(Cl)cc3)n2)c1,EC50,Protein RecA,1.29 µM (active)
same,AC50,[9],2.78 µM (active)
same,IC50,Prothrombin,2.94 µM (active)
NC(=O)CSc1nc2cc([N+](=O)[O-])ccc2[nH]1,IC50,Cysteine protease ATG4B,12.4 µM (active)
same,IC50,Phospholipase A2,9.62 µM (active)
S=C(NCC1CCCCC1)Nc1ccc(Oc2ccccc2)cc1,AC50,HEK293,170 µM (active)
same,EC50,Streptokinase A,4.05 µM (active)
same,EC50,[5],> 60 µM (not active)
same,AC50,[2],4.58 µM (active)
same,EC50,[10],10.9 µM (active)
same,EC50,[7],2.05 µM (active)
same,EC50,Streptococcus,24.3 µM (active)
CC(=O)c1ccc(O)c(CSC2=NCCS2)c1,IC50,Prothrombin,> 50 µM (not active)
O=C1C=C(O)c2c(O)cccc2C1=O,IC50,Prothrombin,> 50 µM (not active)
CCCc1c(C(=O)N/N=C(\C)c2ccccn2)nnn1-c1nonc1N,AC50,HEK293,9.69 µM (active)
Cc1nc(SCC(=O)c2cc3ccccc3oc2=O)c(C#N)c(-c2ccccc2)c1C(=O)Nc1ccccc1,EC50,[11],7.01 µM (active)
same,EC50,[12],8.4 µM (active)
